# Data: patent publication US20020137929A1, “1 - (3-heterocyclylphenyl) isothiourea, -isourea, -guanidine and -amidine herbicidal agents” (Intellectual Property Department, BASF Aktiengesellschaft, priority 1998, published 2002)
# Legend:
# ECHCG (Barnyardgrass) = assay: Preemergence herbicidal evaluation; assay type: in vivo, Echinochloa crus-galli; conditions: rated 4-5 weeks after treatment
# In short: (§1)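 Herbicidal effect scored visually, 0-9, at 4 to 5 weeks against a control; compound applied preemergence by aqueous acetone spray to seeded soil at about 0.0156 to 0.500 kg/ha.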
# [1] = system: CHEAL (Lambsquarters, Common); assay: Postemergence herbicidal evaluation; assay type: in vivo, Chenopodium album; conditions: postemergence
# In short: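 Visual 0-9 injury score (stand, vigor, malformation, size, chlorosis, appearance vs untreated) taken four to five weeks post-spray, averaged across repeat tests. Test plants about two weeks old; foliar spray of acetone/water (1:1) with 0.5% surfactant delivering ~0.0156-0.500 kg active/ha.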
# GALAP (Galium) = assay: Preemergence herbicidal evaluation; assay type: in vivo, Galium aparine; conditions: rated 4-5 weeks after treatment
# In short: as §1
# [2] = system: IPOSS (Morningglory Spp.); assay: Postemergence herbicidal evaluation; assay type: in vivo, Ipomoea Spp.
# Experimental: In the tests, seedling plants are grown in jiffy flats for about two weeks. The test compounds are dispersed in 50/50 acetone/water mixtures containing 0.5% TWEEN®20, a polyoxyethylene sorbitan monolaurate surfactant of Atlas Chemical Industries, in sufficient quantities to provide the equivalent of about 0.0156 kg to 0.500 kg per hectare of active compound when applied to the plants through a spray nozzle operating at 40 psi for a predetermined time. After spraying, the plants are placed on greenhouse benches and are cared for in accordance with conventional greenhouse procedures. From four to five weeks after treatment, the seedling plants are examined and rated according to the rating system set forth below. Where more than one test is involved for a given compound, the data are averaged.
# Plant species employed in these evaluations are reported by header abbreviation, common name and scientific name.
# (§2) Results of herbicide evaluation are expressed on a rating scale (0-9). The scale is based upon a visual observation of plant stand, vigor, malformation, size, chlorosis and overall plant appearance as compared with a control.
# [3] = system: IPOSS (Morningglory Spp.); assay: Preemergence herbicidal evaluation; assay type: in vivo, Ipomoea Spp.; conditions: rated 4-5 weeks after treatment
# Source text: as §2
# The preemergence herbicidal activity of the test compounds of the present invention is exemplified by the following tests in which the seeds of a variety of monocotyledonous and dicotyledonous plants are separately mixed with potting soil and planted on top of approximately one inch of soil in separate pint cups. After planting, the cups are sprayed with the selected aqueous acetone solution containing test compound in sufficient quantity to provide the equivalent of about 0.0156 to 0.500 kg per hectare of test compound per cup. The treated cups are then placed on greenhouse benches, watered and cared for in accordance with conventional greenhouse procedures. From four to five weeks after treatment, the tests are terminated and each cup is examined and rated according to the rating system provided in Example 37.
# The compounds evaluated are reported by compound number given in Example 37.
# [4] = system: GLXMAW (Soybean, Williams); assay: Preemergence herbicidal evaluation; assay type: in vivo, Glycine max, (L.) Merr. cv Williams; conditions: rated 4-5 weeks after treatment
# In short: as §1
# MOOVA (Monochoria) = assay: Postemergence weed control under flooded paddy conditions; assay type: in vivo, Monochoria vaginalis; conditions: postemergence weeds, 3-4 weeks after treatment
# In short: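 Injury ratings (0–9 scale covering stand, vigor, malformation, size, chlorosis and overall appearance versus control) were made three to four weeks after treatment. Test material, about 0.0313 to 0.500 kg/ha a.i. in 50/50 v/v aqueous/acetone, was added to flood water 1.5 to 3 cm deep over 3 to 5 cm weeds and 1.5 to 2.5 leaf rice.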
smiles,measurement,setting,value
"CN1C(=O)CSC1=Nc1cc(N2C(=O)C3=C(CCCC3)C2=O)c(F)cc1Cl [Compound 1, N-{4-chloro-2-fluoro-5-[(3-methyl-4-oxo-2-thiazolidinylidene)amino]phenyl}-1-cyclohexene-1,2-dicarboximide]",ECHCG preemergence herbicidal rating,ECHCG (Barnyardgrass); rate 0.0313 kg/ha,2.0
same,ECHCG preemergence herbicidal rating,ECHCG (Barnyardgrass); rate 0.0625 kg/ha,5.0
same,ECHCG preemergence herbicidal rating,ECHCG (Barnyardgrass); rate 0.1250 kg/ha,6.0
same,ECHCG preemergence herbicidal rating,ECHCG (Barnyardgrass); rate 0.2500 kg/ha,5.0
same,ECHCG preemergence herbicidal rating,ECHCG (Barnyardgrass); rate 0.5000 kg/ha,7.7
same,CHEAL herbicidal rating,[1]; rate 0.0157 kg/ha,6.0
same,CHEAL herbicidal rating,[1]; rate 0.0313 kg/ha,7.0
same,CHEAL herbicidal rating,[1]; rate 0.0625 kg/ha,7.0
same,CHEAL herbicidal rating,[1]; rate 0.1250 kg/ha,9.0
same,CHEAL herbicidal rating,[1]; rate 0.2500 kg/ha,9.0
same,CHEAL herbicidal rating,[1]; rate 0.5000 kg/ha,9.0
same,GALAP preemergence herbicidal rating,GALAP (Galium); rate 0.0313 kg/ha,9.0
same,GALAP preemergence herbicidal rating,GALAP (Galium); rate 0.0625 kg/ha,7.0
same,GALAP preemergence herbicidal rating,GALAP (Galium); rate 0.1250 kg/ha,9.0
same,GALAP preemergence herbicidal rating,GALAP (Galium); rate 0.2500 kg/ha,9.0
same,GALAP preemergence herbicidal rating,GALAP (Galium); rate 0.5000 kg/ha,8.0
same,IPOSS herbicidal rating,[2]; rate 0.0157 kg/ha,6.0
same,IPOSS herbicidal rating,[2]; rate 0.0313 kg/ha,9.0
same,IPOSS herbicidal rating,[2]; rate 0.0625 kg/ha,9.0
same,IPOSS herbicidal rating,[2]; rate 0.1250 kg/ha,9.0
same,IPOSS herbicidal rating,[2]; rate 0.2500 kg/ha,9.0
same,IPOSS herbicidal rating,[2]; rate 0.5000 kg/ha,9.0
same,IPOSS preemergence herbicidal rating,[3]; rate 0.0313 kg/ha,1.0
same,IPOSS preemergence herbicidal rating,[3]; rate 0.0625 kg/ha,6.0
same,IPOSS preemergence herbicidal rating,[3]; rate 0.1250 kg/ha,7.0
same,IPOSS preemergence herbicidal rating,[3]; rate 0.2500 kg/ha,6.0
same,IPOSS preemergence herbicidal rating,[3]; rate 0.5000 kg/ha,8.0
same,GLXMAW preemergence herbicidal rating,[4]; rate 0.0313 kg/ha,0.0
same,GLXMAW preemergence herbicidal rating,[4]; rate 0.0625 kg/ha,2.0
same,GLXMAW preemergence herbicidal rating,[4]; rate 0.1250 kg/ha,2.0
same,GLXMAW preemergence herbicidal rating,[4]; rate 0.2500 kg/ha,4.0
same,GLXMAW preemergence herbicidal rating,[4]; rate 0.5000 kg/ha,3.0
same,Herbicidal rating MOOVA,MOOVA (Monochoria); rate 0.0313 kg/ha,4.0
same,Herbicidal rating MOOVA,MOOVA (Monochoria); rate 0.0625 kg/ha,4.5
same,Herbicidal rating MOOVA,MOOVA (Monochoria); rate 0.1250 kg/ha,4.5
same,Herbicidal rating MOOVA,MOOVA (Monochoria); rate 0.2500 kg/ha,5.0
same,Herbicidal rating MOOVA,MOOVA (Monochoria); rate 0.5000 kg/ha,5.5
